Data: US20120270237A9, “METHODS FOR THE IDENTIFICATION OF KINASE INTERACTING MOLECULES AND FOR THE PURIFICATION OF KINASE PROTEINS” (Cellzone AG, priority 2009, published 2012)

How the values were obtained:
Experiment in all cases: Kinobeads competition binding, HL60 cell lysate
Set-up in all cases: endogenous in cells
Conditions in all cases: 10 μM free compound
CaMKK2 = CaMKK2 (Homo sapiens, UniProt Q96RR4)
Method: (§1) To one aliquot of cell lysate 10 μM of the free compound (FIG. 3, CZC31326) was added and allowed to bind to proteins in the lysate. Then the affinity matrix with the immobilized compound (Example 1) was added to capture proteins that were not interacting with the previously added free compound. Beads were separated from the lysate and bead bound proteins were eluted in SDS sample buffer and subsequently separated by SDS-Polyacrylamide gel electrophoresis (FIG. 4). Suitable gel bands were cut out and subjected to in-gel proteolytic digestion with trypsin. The second lysate aliquot was processed identically, however no free compound was added (DMSO solvent control). Peptides originating from samples 1 and 2 were labeled with iTRAQ reagents (iTRAQ 114 and iTRAQ 117) and the combined samples were analyzed with a nano-flow liquid chromatography system coupled online to a tandem mass spectrometer (LC-MS/MS) experiment followed by iTRAQ reporter ion quantification in the MS/MS spectra (Ross et al., 2004. Mol. Cell. Proteomics 3(12):1154-1169). Further experimental protocols can be found in WO2006/134056 and a previous publication (Bantscheff et al., 2007. Nature Biotechnology 25, 1035-1044). Sepharose-beads with the immobilized compound (100 μl beads per pull-down experiment) were equilibrated in lysis buffer and incubated with a cell lysate sample containing 50 mg of protein on an end-over-end shaker (Roto Shake Genie, Scientific Industries Inc.) for 2 hours at 4° C. Beads were collected, transferred to Mobicol-columns (MoBiTech 10055) and washed with 10 ml lysis buffer containing 0.4% NP40 detergent, followed by 5 ml lysis buffer containing 0.2% detergent. To elute bound proteins, 60 μl 2×SDS sample buffer was added to the column. The column was incubated for 30 minutes at 50° C. and the eluate was transferred to a siliconized microfuge tube by centrifugation. Proteins were then alkylated with 108 mM iodoacetamid. Proteins were then separated by SDS-Polyacrylamide electrophoresis (SDS-PAGE). The peptide extracts of samples treated with 10 μM of free compound (CZC31326) and the solvent control (0.5% DMSO) were treated with different variants of the isobaric tagging reagent (iTRAQ Reagents Multiplex Kit, part number 4352135, Applied Biosystems, Foster City, Calif., USA). The iTRAQ reagents are a set of multiplexed, amine-specific, stable isotope reagents that can label peptides on amino groups in up to four different biological samples enabling simultaneous identification and quantitation of peptides. The iTRAQ reagents were used according to instructions provided by the manufacturer. The samples were resuspended in 10 μl 50 mM TEAB solution, pH 8.5 and 10 μl ethanol were added. The iTRAQ reagent was dissolved in 120 μl ethanol and 10 μl of reagent solution were added to the sample. The labeling reaction was performed at room temperature for one hour on a horizontal shaker and stopped by adding 5 μl of 100 mM TEAB and 100 mM glycine in water. The two labeled sampled were then combined, dried in a vacuum centrifuge and resuspended in 10 μl of 0.1% formic acid in water. Relative protein quantitation was performed using peak areas of iTRAQ reporter ion signals essentially as described in an earlier publication (Bantscheff et al., 2007. Nature Biotechnology 25, 1035-1044).

JAK2 = JAK2 (Homo sapiens, UniProt O60674)
JAK2, sequence (O60674 whole entry): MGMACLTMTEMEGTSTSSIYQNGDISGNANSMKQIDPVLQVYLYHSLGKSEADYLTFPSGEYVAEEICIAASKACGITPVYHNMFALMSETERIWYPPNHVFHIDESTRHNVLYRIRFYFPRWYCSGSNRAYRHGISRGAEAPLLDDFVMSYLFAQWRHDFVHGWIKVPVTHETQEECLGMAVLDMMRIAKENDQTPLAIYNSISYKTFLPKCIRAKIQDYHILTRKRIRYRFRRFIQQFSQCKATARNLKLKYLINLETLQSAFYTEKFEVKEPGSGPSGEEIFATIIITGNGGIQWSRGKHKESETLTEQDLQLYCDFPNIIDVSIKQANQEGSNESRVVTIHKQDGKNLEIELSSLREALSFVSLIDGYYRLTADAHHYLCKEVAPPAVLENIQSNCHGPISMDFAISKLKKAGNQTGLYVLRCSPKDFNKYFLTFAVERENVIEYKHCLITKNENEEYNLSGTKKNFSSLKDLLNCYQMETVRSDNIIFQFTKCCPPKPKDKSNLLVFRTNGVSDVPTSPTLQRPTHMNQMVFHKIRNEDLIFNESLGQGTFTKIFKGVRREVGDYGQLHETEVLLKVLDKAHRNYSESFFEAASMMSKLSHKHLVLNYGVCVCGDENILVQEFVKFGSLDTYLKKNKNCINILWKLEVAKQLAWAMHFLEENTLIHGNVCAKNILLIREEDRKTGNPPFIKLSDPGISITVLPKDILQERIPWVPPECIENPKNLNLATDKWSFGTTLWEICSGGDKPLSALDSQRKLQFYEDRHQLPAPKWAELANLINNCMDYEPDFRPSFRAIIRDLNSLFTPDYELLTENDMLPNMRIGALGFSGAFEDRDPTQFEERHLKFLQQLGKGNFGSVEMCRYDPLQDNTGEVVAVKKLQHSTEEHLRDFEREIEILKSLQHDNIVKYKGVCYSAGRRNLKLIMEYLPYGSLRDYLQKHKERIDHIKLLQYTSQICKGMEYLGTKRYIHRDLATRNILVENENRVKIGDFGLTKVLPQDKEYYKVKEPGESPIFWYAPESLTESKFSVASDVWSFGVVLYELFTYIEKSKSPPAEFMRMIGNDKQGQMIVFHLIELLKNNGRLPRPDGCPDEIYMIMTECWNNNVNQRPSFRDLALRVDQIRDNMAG
Method: as §1

MAP3K3 = MAP3K3 (Homo sapiens, UniProt Q99759)
MAP3K3, sequence (Q99759 whole entry): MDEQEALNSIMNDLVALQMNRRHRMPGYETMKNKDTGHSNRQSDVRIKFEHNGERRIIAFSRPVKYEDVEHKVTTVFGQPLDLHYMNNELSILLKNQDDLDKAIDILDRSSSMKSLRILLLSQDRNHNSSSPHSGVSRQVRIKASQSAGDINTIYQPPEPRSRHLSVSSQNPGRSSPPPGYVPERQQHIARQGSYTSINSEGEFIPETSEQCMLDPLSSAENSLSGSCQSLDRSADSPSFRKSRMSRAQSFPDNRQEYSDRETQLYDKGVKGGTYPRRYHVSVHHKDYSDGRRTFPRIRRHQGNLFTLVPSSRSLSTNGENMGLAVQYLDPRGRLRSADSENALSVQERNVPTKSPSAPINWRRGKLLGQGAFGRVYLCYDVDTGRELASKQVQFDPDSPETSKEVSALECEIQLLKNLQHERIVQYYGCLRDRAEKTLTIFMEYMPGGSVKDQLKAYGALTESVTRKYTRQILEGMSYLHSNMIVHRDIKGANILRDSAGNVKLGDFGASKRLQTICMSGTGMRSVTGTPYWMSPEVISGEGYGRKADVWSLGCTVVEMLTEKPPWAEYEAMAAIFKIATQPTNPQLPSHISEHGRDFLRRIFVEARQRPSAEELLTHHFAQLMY
Method: as §1

MLK4 = MLK4 (Homo sapiens, UniProt Q5TCX8)
MLK4, sequence (Q5TCX8 whole entry): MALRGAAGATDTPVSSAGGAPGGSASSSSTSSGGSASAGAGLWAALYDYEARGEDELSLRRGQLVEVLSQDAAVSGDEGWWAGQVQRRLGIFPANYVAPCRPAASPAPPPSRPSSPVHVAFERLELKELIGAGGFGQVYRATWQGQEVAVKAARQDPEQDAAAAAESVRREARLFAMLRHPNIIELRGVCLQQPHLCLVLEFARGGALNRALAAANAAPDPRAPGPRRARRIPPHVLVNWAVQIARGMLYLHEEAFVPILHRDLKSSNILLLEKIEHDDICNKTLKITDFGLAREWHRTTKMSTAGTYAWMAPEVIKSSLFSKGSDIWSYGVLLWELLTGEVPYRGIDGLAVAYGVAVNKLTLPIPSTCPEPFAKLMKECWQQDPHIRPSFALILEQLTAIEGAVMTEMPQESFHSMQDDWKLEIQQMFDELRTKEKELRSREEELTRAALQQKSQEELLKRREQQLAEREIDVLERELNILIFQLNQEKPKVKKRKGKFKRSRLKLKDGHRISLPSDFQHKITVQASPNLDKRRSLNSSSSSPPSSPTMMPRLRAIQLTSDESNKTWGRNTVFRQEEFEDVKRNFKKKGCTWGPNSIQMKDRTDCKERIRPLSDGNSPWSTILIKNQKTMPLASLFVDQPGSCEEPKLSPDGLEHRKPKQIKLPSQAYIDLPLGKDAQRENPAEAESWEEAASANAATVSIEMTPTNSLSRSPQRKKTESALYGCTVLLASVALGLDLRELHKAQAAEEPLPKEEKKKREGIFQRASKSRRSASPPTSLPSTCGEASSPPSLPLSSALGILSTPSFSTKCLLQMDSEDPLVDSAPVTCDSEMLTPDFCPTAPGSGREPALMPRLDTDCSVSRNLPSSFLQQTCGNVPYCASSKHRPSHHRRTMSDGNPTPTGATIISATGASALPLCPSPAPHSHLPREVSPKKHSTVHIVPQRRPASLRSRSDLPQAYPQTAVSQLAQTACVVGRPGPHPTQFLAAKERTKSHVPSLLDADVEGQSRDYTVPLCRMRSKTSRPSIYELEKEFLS
Method: as §1

NEK3 = molecular target: T1, NEK3 (Homo sapiens, UniProt P51956)
T1 sequence (P51956 1-506): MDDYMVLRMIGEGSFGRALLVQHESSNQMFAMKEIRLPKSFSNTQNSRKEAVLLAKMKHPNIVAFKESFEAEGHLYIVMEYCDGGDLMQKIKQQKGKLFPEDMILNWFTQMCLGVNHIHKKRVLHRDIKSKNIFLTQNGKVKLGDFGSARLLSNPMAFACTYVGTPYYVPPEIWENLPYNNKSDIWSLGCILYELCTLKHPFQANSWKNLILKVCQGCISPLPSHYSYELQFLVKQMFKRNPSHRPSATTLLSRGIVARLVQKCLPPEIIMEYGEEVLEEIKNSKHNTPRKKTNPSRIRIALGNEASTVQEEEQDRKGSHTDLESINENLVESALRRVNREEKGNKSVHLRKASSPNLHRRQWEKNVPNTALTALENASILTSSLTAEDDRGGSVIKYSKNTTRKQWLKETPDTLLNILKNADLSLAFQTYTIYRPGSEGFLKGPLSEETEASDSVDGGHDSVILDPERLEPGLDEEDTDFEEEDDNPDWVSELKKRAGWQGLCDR
Method: as §1

PYK2 = PYK2 (Homo sapiens, UniProt Q14289)
PYK2, sequence (Q14289 whole entry): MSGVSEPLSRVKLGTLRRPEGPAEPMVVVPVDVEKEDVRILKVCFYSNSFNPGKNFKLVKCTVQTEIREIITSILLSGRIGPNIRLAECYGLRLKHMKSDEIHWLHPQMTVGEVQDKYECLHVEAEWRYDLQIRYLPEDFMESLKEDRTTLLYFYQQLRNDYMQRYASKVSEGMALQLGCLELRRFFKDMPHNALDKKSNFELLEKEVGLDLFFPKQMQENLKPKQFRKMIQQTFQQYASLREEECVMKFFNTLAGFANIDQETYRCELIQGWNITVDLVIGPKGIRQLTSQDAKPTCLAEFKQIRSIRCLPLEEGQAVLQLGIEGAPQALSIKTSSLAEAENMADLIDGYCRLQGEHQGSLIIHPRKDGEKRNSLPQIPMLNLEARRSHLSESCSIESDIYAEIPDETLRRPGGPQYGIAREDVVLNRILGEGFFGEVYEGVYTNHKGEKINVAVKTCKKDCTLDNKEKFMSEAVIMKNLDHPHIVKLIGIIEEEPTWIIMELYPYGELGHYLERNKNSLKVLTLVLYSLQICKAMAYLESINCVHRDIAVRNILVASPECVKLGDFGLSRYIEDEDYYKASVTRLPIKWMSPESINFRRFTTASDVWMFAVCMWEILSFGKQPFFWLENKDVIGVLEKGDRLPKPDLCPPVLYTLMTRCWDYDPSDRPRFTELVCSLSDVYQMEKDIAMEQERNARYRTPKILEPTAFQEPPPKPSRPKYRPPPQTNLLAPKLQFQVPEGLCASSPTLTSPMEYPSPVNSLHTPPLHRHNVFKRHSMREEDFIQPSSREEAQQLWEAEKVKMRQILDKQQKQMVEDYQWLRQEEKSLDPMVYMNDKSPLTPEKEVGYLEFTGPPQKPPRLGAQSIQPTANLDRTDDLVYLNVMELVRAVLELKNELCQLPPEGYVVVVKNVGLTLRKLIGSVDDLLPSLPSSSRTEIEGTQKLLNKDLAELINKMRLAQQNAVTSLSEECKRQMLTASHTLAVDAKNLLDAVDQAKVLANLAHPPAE
Method: as §1

RSK2 = RSK2 (Homo sapiens, UniProt P51812)
Method: as §1

Wee1 = Wee1 (Homo sapiens, UniProt P30291)
Wee1, sequence (P30291 whole entry): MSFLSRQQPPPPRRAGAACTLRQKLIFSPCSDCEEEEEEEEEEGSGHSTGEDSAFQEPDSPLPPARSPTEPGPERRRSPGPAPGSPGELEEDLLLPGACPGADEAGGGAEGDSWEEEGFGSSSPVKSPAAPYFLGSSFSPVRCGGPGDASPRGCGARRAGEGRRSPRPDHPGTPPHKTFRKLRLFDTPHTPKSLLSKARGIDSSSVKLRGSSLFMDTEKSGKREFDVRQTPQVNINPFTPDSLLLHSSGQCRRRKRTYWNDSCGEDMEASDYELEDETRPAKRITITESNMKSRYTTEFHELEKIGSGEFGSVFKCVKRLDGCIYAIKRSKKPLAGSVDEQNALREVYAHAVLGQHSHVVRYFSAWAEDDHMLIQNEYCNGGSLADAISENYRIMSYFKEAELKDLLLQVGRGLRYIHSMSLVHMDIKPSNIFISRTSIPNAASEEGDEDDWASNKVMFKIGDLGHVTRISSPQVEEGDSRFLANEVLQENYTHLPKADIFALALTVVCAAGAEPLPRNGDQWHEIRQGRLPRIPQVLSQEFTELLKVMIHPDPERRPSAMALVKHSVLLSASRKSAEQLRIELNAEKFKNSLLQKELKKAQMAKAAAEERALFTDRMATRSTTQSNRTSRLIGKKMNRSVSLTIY
Method: as §1

CaMKK2, sequence (Q96RR4 whole entry): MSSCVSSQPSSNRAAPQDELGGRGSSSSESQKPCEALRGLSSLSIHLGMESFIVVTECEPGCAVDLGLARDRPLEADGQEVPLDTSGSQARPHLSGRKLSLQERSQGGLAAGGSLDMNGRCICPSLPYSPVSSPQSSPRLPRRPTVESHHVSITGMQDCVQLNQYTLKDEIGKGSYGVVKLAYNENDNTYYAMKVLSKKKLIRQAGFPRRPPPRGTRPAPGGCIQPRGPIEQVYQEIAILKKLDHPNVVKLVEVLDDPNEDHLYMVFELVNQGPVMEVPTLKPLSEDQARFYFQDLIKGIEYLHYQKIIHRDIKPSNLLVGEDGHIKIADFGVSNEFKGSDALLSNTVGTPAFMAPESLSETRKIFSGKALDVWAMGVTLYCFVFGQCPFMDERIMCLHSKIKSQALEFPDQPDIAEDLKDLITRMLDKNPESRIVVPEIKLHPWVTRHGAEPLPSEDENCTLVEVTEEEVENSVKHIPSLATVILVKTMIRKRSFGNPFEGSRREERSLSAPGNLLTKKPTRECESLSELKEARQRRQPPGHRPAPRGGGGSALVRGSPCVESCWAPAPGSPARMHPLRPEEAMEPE

inhibition at 10 µM (CaMKK2): 98.1%
Competition % (JAK2): 96.8%
inhibition at 10 µM (MAP3K3): 97.6%
inhibition at 10 µM (MLK4): 95%
inhibition at 10 µM (NEK3): 97%
inhibition at 10 µM (PYK2): 95.7%
inhibition at 10 µM (RSK2): 96.7%
inhibition at 10 µM (Wee1): 98.2%
Structure (SMILES): CS(=O)(=O)Nc1ccccc1Nc1nc(Nc2cccc(OCCN)c2)ncc1Cl [CZC31326, N-(2-(2-(3-(2-aminoethoxy)phenylamino)-5-chloropyrimidin-4-ylamino)phenyl)methanesulfonamide]
